Reference: EP0353777A2, “New 2,5-disubstituted tetrahydrofuran derivatives” (J. URIACH & CIA. S.A., priority 1988, dated 1990)
Read-outs that look alike come from different tables or passages of the source.

Tests used:
[1] = test system: platelet aggregation induced by PAF; test: Test 1: Inhibition of platelet aggregation induced by PAF; assay type: cell-based; conditions: rabbit platelet rich plasma, aggregation induced by PAF (C₁₈) 16 nM final, Born nephelometric technique, read-out: IC₅₀
Experimental: Test 1: Inhibition of platelet aggregation induced by PAF.
The blood is obtained by cardiac puncture of male New Zealand albino rabbits (between 2 and 2.5 Kg of weight) and coagulatlon is prevented by adding 1 part of 3.16% sodium citrate dihydrate in 9 parts of blood. The platelet rich plasma (PRP) is prepared by blood centrifugation at 250xg for 10 min. at 4°C and it is diluted with platelet poor plasma (PPP) obtained by additional centrifugation at 3000xg for 10 min. The amount of platelets is adjusted to […]. The platelet aggregation induced by PAF (C₁₈, prepared in our laboratory) (16 nM, final) is determined by the Born nephelometric technique (J. Physiol., 1962 162, 67) using a aggregometer Chrono-log 500. The activities of the inhibitors are expressed as IC₅₀, that is to say the concentration of the drug needed to inhibit the platelet aggregation in a 50%.

[2] = test system: hypotension induced by PAF; test: Test 2: Inhibition of the hypotensive effect induced by PAF in normotense rats; assay type: in vivo; conditions: anesthetized male Sprage Dawley rats; compounds given through the femoral vein 3 min. before PAF (0.5 mcg/Kg, i.v.); average arterial pressure
Experimental: Test 2 - Inhibition of the hypotensive effect induced by PAF in normotense rats. Male Sprage Dawley rats, of 180-220 g of weight, anesthetized with sodium pentobarbital (50 mg/Kg, i.p. 1 mL/100 g) have been used. In order to measure the average arterial pressure, a polyethylene catheter is introduced into the carotid artery. The arterial pressure is recorded with the help of a transducer connected with a […] Beckman polygraph. […]

Row | SMILES | IC50 ([1]; Oryctolagus cuniculus) [nM] | IC50 [1] [nM] | CI₅₀ [2]
1 | CCCCCCCCCCCCCCCCCC1CCC(COC(=O)N(Cc2cccc[n+]2C)C(C)=O)O1 (mixture of isomers) [Compound 5, (±)-cis,trans-2-[N-acetyl-N-[((5-heptadecyl-2-tetrahydrofuranyl)methoxy)carbonyl]aminomethyl]-1-methylpiridinium iodide] | 1100 |  | 0,8 mg/Kg,i.v.
2 | CCCCCCCCCCCCCCCCCC1CCC(COC(=O)N(Cc2cccc[n+]2CC)C(=O)OCC)O1 (mixture of isomers) [Compound 7, (±)-cis,trans-2-[N-ethoxycarbonyl-N-[((5-heptadecyl-2-tetrahydrofuranyl)methoxy)carbonyl]aminomethyl]-1-ethylpyridinium iodide] | 130 |  | 0,34 mg/Kg,i.v.
3 | CCCCCCCCCCCCCCCC1CCC(COC(=O)N(Cc2cccc[n+]2CC)C(C)=O)O1 (mixture of isomers) [Compound 11, (±)-cis,trans-2-[N-acetyl-N-[((5-pentadecyl-2-tetrahydrofuranyl)methoxy)carbonyl]aminomethyl]-1-ethylpyridinium iodide] | 95 |  | 0,15 mg/Kg,i.v.
4 | CCCCCCCCCCCCCCCC1CCC(COC(=O)CCCCC[n+]2ccsc2)O1 (mixture of isomers) [Compound 12, (±)-cis,trans-3-[6-[(5-pentadecyl-2-tetrahydrofuranyl)methoxy]-6-oxohexyl] tiazolium 4-methylbenzenesulfonate] | 3100 |  | 
5 | CCCCCCCCCCCCCCCCC[C@@H]1CC[C@H](COC(=O)N(Cc2cccc[n+]2CC)C(C)=O)O1.[I-] (racemic) [Compound 3, (±)-cis,trans-2-[N-acetyl-N-[((5-heptadecyl-2-tetrahydrofuranyl)methoxy)carbonyl]aminomethyl]-1-ethylpiridinium iodide] |  | 71 | 0,15 mg/Kg,i.v.
6 | CCCCCCCCCCCCCCCCC[C@@H]1CC[C@H](COC(=O)N(Cc2cccc[n+]2CC)C(C)=O)O1.[Cl-] (racemic) [Compound 4, (±)-cis,trans-2-[N-acetyl-N-[((5-heptadecyl-2-tetrahydrofuranyl)methoxy)carbonyl]aminomethyl]-1-ethylpiridinium chloride] |  | 190 | 0,19 mg/Kg,i.v.

More lines, main results first:

Row | IC50 ([1]; Oryctolagus cuniculus) [nM] | IC50 [1] [nM] | SMILES | CI₅₀ [2]
7 | 1300 |  | CCCCCCCCCCCCCCCC1CCC(COCCCCCC[n+]2ccsc2)O1 (mixture of isomers) [Compound 13, (±)-cis,trans-3-[6-[(5-pentadecyl-2-tetrahydrofuranyl)methoxy]hexyl]tiazolium 4-methylbenzenesulfonate] | 
8 | 40 |  | CCCCCCCCCCCCCCCCCNC(=O)OCC1CCC(COC(=O)N(Cc2cccc[n+]2CC)C(C)=O)O1 (mixture of isomers) [Compound 16, (±)-cis,trans-2-[N-acetyl-N-[((5-(((N-heptadecylcarbamoyl)oxy)methyl)-2-tetrahydrofuranyl)methoxy)carbonyl]aminomethyl] -1-ethylpiridinium iodide] | 0,064 mg/Kg,i.v.
9 | 54 |  | CCCCCCCCCCCCCCCNC(=O)OCC1CCC(COC(=O)N(Cc2cccc[n+]2CC)C(C)=O)O1 (mixture of isomers) [Compound 19, (±)-cis,trans-2-[N-acetyl-N-[((5-(((N-pentadecylcarbamoyl)oxy)methyl)-2-tetrahydrofuranyl)methoxy)carbonyl]aminomethyl] -1-ethylpiridinium iodide] | 0,098 mg/Kg,i.v.
10 | 74 |  | CCCCCCCCCCCCCCCCOCC1CCC(COC(=O)N(Cc2cccc[n+]2CC)C(C)=O)O1 (mixture of isomers) [Compound 25, (±)-cis,trans-2-[N-acetyl-N-[((5-((hexadecyloxy)methyl)-2-tetrahydrofuranyl)methoxy)carbonyl]aminomethyl]-1-ethylpyridinium iodide] | 0,036 mg/Kg,i.v.
